The values that follow come from patent publication US10954196B2, “Method for producing 5-hydroxy-1H-imidazole-4 carboxamide 3/4 hydrate” (FUJIFILM Corporation, priority 2017, dated 2021).

The nature of data set [1]: Test Example 3: coloring stability during storage (unwashed product). Type of data set: physicochemical. The conditions noted are these: light shielding, 60° C., 75% relative humidity, hydrate; for Color difference (ΔE): before vs after storage for 5 days, spectrophotometric color difference meter, reflection method; for Tone: visually observed after storage for 5 days, air atmosphere.

A short description of data set [2]: Test Example 1: test of coloring stability during storage (washed product). Type of data set: physicochemical. The conditions noted are these: visually observed after storage for 5 days, air atmosphere, light shielding, 60° C., 75% relative humidity, hydrate. Here is the method:
About 1 g of the test substance was placed in a storage bag formed by stacking two 0.04 mm-thick polyethylene bags, sealed in each polyethylene bag, and stored for 5 days in an air atmosphere under the conditions of light shielding, 60° C., and 75% relative humidity. The tone of the test substance after the test was visually observed. In addition, a change in the color of the crystal before and after the test was measured with a spectrophotometric color difference meter to determine the color difference. Colorimeter: spectrophotometric color difference meter SE2000 manufactured by Nippon Denshoku Industries Co., Ltd. Measurement method: reflection method

The conditions of data set [3]: as disclosed in Test Example 1 and Test Example 2 of WO2009/035168A; cited from earlier work.

For `NC(=O)c1nc[nH]c1O.O` [Example 8, 5-hydroxy-1H-imidazole-4-carboxamide•¾ hydrate], the “Color difference (ΔE)” value in data set [1] was found to be 1.4. For the same compound, the Tone result in data set [1] and in data set [2] was “White” each time.

With `NC(=O)c1nc[nH]c1O.O` [Example 3, 5-hydroxy-1H-imidazole-4-carboxamide•¾ hydrate], in data set [1], the “Color difference (ΔE)” value is 1.1 and the Tone entry was “White”. For the same compound, the Tone entry in data set [2] is listed as “White”.

On to `NC(=O)c1nc[nH]c1O.O` [Example 10, 5-hydroxy-1H-imidazole-4-carboxamide•¾ hydrate], for which the “Color difference (ΔE)” value in data set [1] is on record as 2.2. Moreover, the Tone result in data set [1] and in data set [2] was “White” in each case.

For `NC(=O)c1nc[nH]c1O.O` [Example 11, 5-hydroxy-1H-imidazole-4-carboxamide•¾ hydrate], the “Color difference (ΔE)” value in data set [1] is given as 1.6. For the same compound, the Tone entry in data set [1] and in data set [2] was “White” in each case.

In the case of `NC(=O)c1nc[nH]c1O` [compound A, 5-Hydroxy-1H-imidazole-4-carboxamide], the “Coloring stability (color change)” value in data set [3] was “changed color to indigo blue or blue”.

For the compound `NC(=O)c1nc[nH]c1O.O` [Example 12, 5-hydroxy-1H-imidazole-4-carboxamide•¾ hydrate], the Tone entry in data set [1] and in data set [2] was “White” throughout.

Consider `Cl.NC(=O)c1nc[nH]c1O` [hydrochloride of the compound A], for which, in data set [3], the “Coloring stability (color change)” value is “stable”.

Regarding `NC(=O)c1nc[nH]c1O.O` [Example 7, 5-hydroxy-1H-imidazole-4-carboxamide•¾ hydrate], in data set [1], the “Color difference (ΔE)” value stood at 1.0 and the Tone result is recorded as “White”. Besides, the Tone entry in data set [2] is reported as “White”.

As for `NC(=O)c1nc[nH]c1O.O` [Example 2, 5-hydroxy-1H-imidazole-4-carboxamide•¾ hydrate], in data set [1], the “Color difference (ΔE)” value is 3.1 and the Tone entry is given as “White”. Besides, the Tone result in data set [2] is “White”.

In the case of `NC(=O)c1nc[nH]c1O.O` [Comparative Example 1, 5-hydroxy-1H-imidazole-4-carboxamide•¾ hydrate, reference compound], in data set [1], the “Color difference (ΔE)” value is reported as 62.4 and the Tone result is on record as “Black blue”.

`NC(=O)c1nc[nH]c1O.O` [Comparative Example 2, 5-hydroxy-1H-imidazole-4-carboxamide•¾ hydrate, reference compound]: in data set [1], the “Color difference (ΔE)” value came out at 51.4 and the Tone result is “Black blue”.

`NC(=O)c1nc[nH]c1O.O` [Example 5, 5-hydroxy-1H-imidazole-4-carboxamide•¾ hydrate]: the “Color difference (ΔE)” value in data set [1] amounted to 4.1. Further, the Tone result in data set [1] and in data set [2] was “White” in each case.

Consider `NC(=O)c1nc[nH]c1O.O` [Example 9, 5-hydroxy-1H-imidazole-4-carboxamide•¾ hydrate], for which, in data set [1], the “Color difference (ΔE)” value was found to be 0.9 and the Tone entry is on record as “White”. The Tone result in data set [2] was “White”.

As to `NC(=O)c1nc[nH]c1O.O` [Example 4, 5-hydroxy-1H-imidazole-4-carboxamide•¾ hydrate], in data set [1], the “Color difference (ΔE)” value came out at 2.3 and the Tone result is on record as “White”. The Tone entry in data set [2] is listed as “White”.
